In patent US20200188431A1, “GLUTAMINE DEHYDROGENASE INHIBITORS FOR USE IN MUSCLE REGENERATION” (VIB VZW, priority 2017, published 2020):

What was measured:
[1] = biological target: T1, glutamine transporter SLC1A5 (Mus musculus, UniProt P51912); assay: CTX muscle injury with SLC1A5 inhibition by GPNA, proliferating muscle precursors; format: in vivo, mice; design: from tissue; host or cells: living CTRL and Glud1 ΔMo mice (C57BL/6); read-out in tibialis anterior muscle; conditions: Glud1ΔMo TA muscles 1 day after CTX injury; GPNA 3 times per day, oral, vs vehicle
T1 sequence (P51912 1-553): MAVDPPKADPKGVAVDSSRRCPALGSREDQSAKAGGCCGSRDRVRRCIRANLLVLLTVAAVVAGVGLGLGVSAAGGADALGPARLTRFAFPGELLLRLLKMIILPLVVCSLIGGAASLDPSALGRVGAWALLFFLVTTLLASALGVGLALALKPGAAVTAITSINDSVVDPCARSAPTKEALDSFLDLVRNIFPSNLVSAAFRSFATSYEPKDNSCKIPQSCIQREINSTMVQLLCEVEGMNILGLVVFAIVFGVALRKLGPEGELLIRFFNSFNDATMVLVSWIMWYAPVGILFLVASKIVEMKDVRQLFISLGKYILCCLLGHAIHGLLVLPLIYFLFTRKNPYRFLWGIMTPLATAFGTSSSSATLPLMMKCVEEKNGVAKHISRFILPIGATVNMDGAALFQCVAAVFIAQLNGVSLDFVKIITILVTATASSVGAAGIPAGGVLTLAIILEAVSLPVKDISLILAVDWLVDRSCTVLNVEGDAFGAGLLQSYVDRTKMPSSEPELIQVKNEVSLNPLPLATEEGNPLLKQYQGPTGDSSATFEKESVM
Description: m: Quantification of proliferating muscle precursors on sections of TA muscles 1 day after CTX injury, stained for PHH3 and laminin. CTRL and Glud1^ΔM0 mice were treated 3 times per day with the SLC1A5 inhibitor GPNA, or vehicle as control. Number of samples included in the analysis: CTRL with vehicle, n=5; Glud1^ΔMo with vehicle, n=5; CTRL with GPNA, n=8; Glud1^ΔMo with GPNA, n=8.
(§1) Mice were anaesthetized with isoflurane and 50 μl of 10 μM CTX was injected in the tibialis anterior (TA) muscle. Muscles were harvested for analysis at different time points post-injury (day 1 and day 6). In vivo GLUD1 inhibition was achieved by bi-daily gavage of R162 (Focus Biomolecules) at 0.6 mg/mouse. Mice were pretreated 1 day before CTX injection or ischemic ligation. Afterwards, mice continued to receive daily treatment until their sacrifice. To inhibit SLC1A5, mice were treated 3 times per day with 500 mM GPNA (Sigma-Aldrich). […]
(§2) 7 μm-thick cryosections were obtained by using a Leica cryostat from frozen muscles collected in optimal cutting temperature compound (OCT). […] Necrotic and regenerating muscle fibers, were detected by H&E staining as previously described (Takeda et al. 2011, Nature 479:122-126) and analysed by ImageJ software. […] Whenever sections were stained in fluorescence, ProLong Gold mounting medium with or without DAPI (Invitrogen) was used. […]

[2] = biological target: T1, glutamine transporter SLC1A5; assay: [U-14C]-glutamine uptake in C2C12 cells; format: cell-based, murine; design: endogenous in cells; host or cells: C2C12 myoblast cell line
Description: e: [U-^14C]-glutamine uptake in SLC1A5-deficient C2C12 cells obtained by co-expressing the Cas9 along with a gRNA targeting the Slc1a5 locus. Wild type cells (Ctrl) and a non-targeting scrambled (Scrl) gRNA were used as negative controls. C2C12 cells treated with SLC1A5 inhibitor gamma-L-Glutamyl-p-Nitroanilide (GPNA) was used as a positive control.
BMDMs were incubated in M199 medium (Gibco) supplemented with 10% FBS and 0.5 μCi/ml [U-^14C]-glutamine for 30 min at 37° C. Cells were lysed in 1N NaOH and the radioactivity was measured by liquid scintillation counting.

[3] = biological target: glutamine synthetase (GS) (Mus musculus, UniProt P15105); conditions: GLUD1-deficient BMDMs, glutamine deprivation, 1 mM MSO for 48 hours
Description: o: Quantification (by GC-MS) of extracellular glutamine content from BMDMs under glutamine deprivation treated with and without MSO.
Briefly, bone marrow cells (1.6×10^6 cells/ml) were cultured in a volume of 6 ml in a 10 cm Petri dish in DMEM supplemented with 20% FBS and 30% L929 conditioned medium as a source of M-CSF. After 3 days of culture, an additional 3 ml of differentiation medium was added. At day 7, macrophages were harvested with ice cold Ca2^+ and Mg2^+-free PBS. The cells obtained were uniformly macrophages as assessed by FACS, using the pan-macrophage marker F4/80.
For mass spectrometry analysis of glutamate and glutamine, 2×10^6 cell pellets were washed twice in PBS and extracted in 500 μl of 80% methanol (80-20, methanol-water). Upon extraction, samples were centrifuged at 20.000×g for 15 min and the supernatant was dried using a vacuum centrifuge. Twenty-five μl of a 2% methoxyamine hydrochloride solution (20 mg dissolved in 1 ml pyridine) were added to the dried pellet and the tubes were then placed at 37° C. for 90 min. […] The mass spectrometer operated in SIM mode, glutamine and glutamate were determined from the m/z 341.2 and 342.2 respectively. For the quantification we used the Agilent Masshunter Quan tool.

[4] = tested on: GLUD1; conditions: cited from earlier work
[5] = biological target: T2, GLUD1 (Mus musculus, UniProt P26443); assay: Cardiotoxin (CTX) muscle injury of tibialis anterior, R162 by bi-daily gavage; format: in vivo; conditions: wild type mice
T2 construct: from tissue; host or cells: living C57BL/6 wild-type mice; systemic exposure, read-out in tibialis anterior / crural muscle
Text: a-c: Quantification of regenerating fibers (a) and intact differentiated fibers (b) on H&E-stained sections (c) from TA muscles 6 days after CTX injury. Wild type mice were bi-daily treated with R162, or vehicle as control.
d-e: Quantification (d) and representative images (e) of F4/80^+ area in TA muscles, 6 days after CTX injury. Wild type mice were bi-daily treated with R162, or vehicle as control.
f-g: Quantification (f) and representative images (g) of proliferating muscle precursors on sections of TA muscles 1 day after CTX injury, stained for PHH3 and laminin. Wild type mice were bi-daily treated with R162, or vehicle as control.
Mice were anaesthetized with isoflurane and 50 μl of 10 μM CTX was injected in the tibialis anterior (TA) muscle. Muscles were harvested for analysis at different time points post-injury (day 1 and day 6). In vivo GLUD1 inhibition was achieved by bi-daily gavage of R162 (Focus Biomolecules) at 0.6 mg/mouse. Mice were pretreated 1 day before CTX injection or ischemic ligation. Afterwards, mice continued to receive daily treatment until their sacrifice. To inhibit SLC1A5, mice were treated 3 times per day with 500 mM GPNA (Sigma-Aldrich). CTX was injected 1 hour after the first gavage, and mice were sacrificed 24 hours afterwards.
7 μm-thick cryosections were obtained by using a Leica cryostat from frozen muscles collected in optimal cutting temperature compound (OCT). Alternatively, tibialis anterior and calf muscles (gastrocnemius) were fixed in 2% paraformaldehyde, dehydrated, embedded in paraffin, and sectioned at 7 μm thickness. Necrotic and regenerating muscle fibers, were detected by H&E staining as previously described (Takeda et al. 2011, Nature 479:122-126) and analysed by ImageJ software. After deparaffinization and rehydration, muscle sections were permeabilized by a solution containing 1% BSA, 0.2% Triton-X in PBS 30 min at RT and blocked with Donkey serum (Sigma)1 h at RT. […] Whenever sections were stained in fluorescence, ProLong Gold mounting medium with or without DAPI (Invitrogen) was used. […]

[6] = biological target: T2, GLUD1; assay: Hindlimb ischemia (femoral artery ligation), R162 by bi-daily gavage; format: in vivo; conditions: crural muscles 14 days after ligation; wild type mice; bi-daily R162 vs vehicle
Description: h-j: Quantification of the necrotic area (h) and intact differentiated fibers (i) on H&E-stained sections (j) from crural muscles 14 days after ligation. Wild type mice were bi-daily treated with R162, or vehicle as control.
k-l: Quantification (k) and representative images (l) of F4/80^+ area in crural muscles, 14 days after ligation. Wild type mice were bi-daily treated with R162, or vehicle as control.
as §1, §2

T2 sequence (P26443 54-558): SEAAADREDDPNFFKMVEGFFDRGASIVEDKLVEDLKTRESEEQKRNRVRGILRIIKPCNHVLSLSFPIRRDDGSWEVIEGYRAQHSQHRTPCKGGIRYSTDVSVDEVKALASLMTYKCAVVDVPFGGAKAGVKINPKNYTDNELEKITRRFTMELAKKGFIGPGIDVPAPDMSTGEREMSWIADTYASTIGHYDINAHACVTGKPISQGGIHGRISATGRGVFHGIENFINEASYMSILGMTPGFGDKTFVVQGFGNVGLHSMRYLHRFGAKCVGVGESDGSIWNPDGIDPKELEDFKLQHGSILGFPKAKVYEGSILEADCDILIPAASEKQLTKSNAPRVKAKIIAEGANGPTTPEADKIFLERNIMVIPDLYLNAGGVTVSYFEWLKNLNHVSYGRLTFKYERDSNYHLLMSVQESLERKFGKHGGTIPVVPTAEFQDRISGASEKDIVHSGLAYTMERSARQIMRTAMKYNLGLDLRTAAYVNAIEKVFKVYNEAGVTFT
glutamine synthetase (GS), sequence (P15105 2-373 limits assumed): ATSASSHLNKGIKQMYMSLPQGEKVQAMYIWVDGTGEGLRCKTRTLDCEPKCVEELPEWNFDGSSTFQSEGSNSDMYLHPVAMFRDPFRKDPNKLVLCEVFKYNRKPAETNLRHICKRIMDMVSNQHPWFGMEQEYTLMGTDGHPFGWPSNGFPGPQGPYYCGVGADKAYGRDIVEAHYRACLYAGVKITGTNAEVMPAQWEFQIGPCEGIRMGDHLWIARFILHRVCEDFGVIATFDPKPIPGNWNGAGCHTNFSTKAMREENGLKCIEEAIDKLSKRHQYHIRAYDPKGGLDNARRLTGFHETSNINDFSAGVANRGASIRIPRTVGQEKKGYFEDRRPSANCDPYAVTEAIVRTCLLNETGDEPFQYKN

With `N[C@@H](CCC(=O)Nc1ccc([N+](=O)[O-])cc1)C(=O)O` [GPNA, gamma-L-Glutamyl-p-Nitroanilide] the “abundance of proliferating myogenic precursors (PHH3, laminin)” value [1] was “abolished the abundance of proliferating myogenic precursors” and the “block of glutamine uptake” value [2] was 75%.
With `CS(=N)(=O)CC[C@H](N)C(=O)O` (stereo partly drawn) [MSO, L-methionine-SR-sulfoximine] the extracellular glutamine production [3] was “rescued back to the CTRL levels”.
For `C=CCc1ccc2c(c1O)C(=O)c1ccccc1C2=O` [R162, 2-allyl-1-hydroxy-9,10-anthraquinone], the “effect on tumor growth” value ([4]; Jin et al. 2015) is listed as “therapeutic effect on tumor growth”, the safety of use ([4]; mouse models of cancer therapy, Palmieri et al. 2017) is listed as “safely used in mouse models of cancer therapy” and the “increase in the number of PHH3+ cells (proliferating muscle precursors) upon damage” value ([5]; TA muscles 1 day after CTX injury, bi-daily oral gavage of R162 vs vehicle) is listed as 60%. For the same compound, the “quality of the muscle (regenerating fibers and intact differentiated fibers on H&E-stained sections)” value ([5]; TA muscles 6 days after CTX injury, bi-daily oral gavage of R162 0.6 mg/mouse vs vehicle) was “strongly improved the quality of the muscle”, the “inflammation (F4/80+ area)” value ([5]; TA muscles 6 days after CTX injury, bi-daily oral gavage of R162 vs vehicle) was “reduced inflammation” and the “inflammatory response (F4/80+ area)” value [6] was “resolution of the inflammatory response”. The “repair of the necrotic damage (necrotic area and intact differentiated fibers on H&E-stained sections)” value [6] was “improved repair of the necrotic damage”.
